In PubChem BioAssay (NCI):
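GI50 marks 50% less growth. TGI: total growth inhibition.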 Residues, ends and D or L forms follow the SMILES beside them. *: point of attachment. Cbz = O=C(OCc1ccccc1)*

Tests used:
Assay in all cases: NCI-60 cell line screen, 384-well format; in the data active means GI50 below about 0.43 µM; inactive means the rest
SF-295 CNS = system: SF-295 CNS
HT29 colon = system: HT29 colon
A549 NSCLC = system: A549 NSCLC
MCF7 breast = system: MCF7 breast
PC-3 prostate = system: PC-3 prostate
A498 renal = system: A498 renal
NCI-H226 lung = system: NCI-H226 lung
LOX IMVI melanoma = system: LOX IMVI melanoma
SK-OV-3 ovarian = system: SK-OV-3 ovarian
HOP-62 NSCLC = system: HOP-62 NSCLC
BT-549 breast = system: BT-549 breast
OVCAR-3 ovarian = system: OVCAR-3 ovarian
UO-31 renal = system: UO-31 renal
UACC-62 melanoma = system: UACC-62 melanoma
SF-539 CNS = system: SF-539 CNS
HOP-92 NSCLC = system: HOP-92 NSCLC
SNB-75 CNS = system: SNB-75 CNS
SW-620 colon = system: SW-620 colon
RPMI-8226 leukemia = system: RPMI-8226 leukemia
NCI-H23 lung = system: NCI-H23 lung
DU-145 prostate = system: DU-145 prostate
TK-10 renal = system: TK-10 renal
SNB-19 CNS = system: SNB-19 CNS
SK-MEL-2 melanoma = system: SK-MEL-2 melanoma
UACC-257 melanoma = system: UACC-257 melanoma
OVCAR-4 ovarian = system: OVCAR-4 ovarian
MOLT-4 leukemia = system: MOLT-4 leukemia
OVCAR-5 ovarian = system: OVCAR-5 ovarian
SR leukemia = system: SR leukemia
EKVX NSCLC = system: EKVX NSCLC
KM12 colon = system: KM12 colon
HCT-15 colon = system: HCT-15 colon
NCI-H460 NSCLC = system: NCI-H460 NSCLC
SK-MEL-28 melanoma = system: SK-MEL-28 melanoma
SF-268 CNS = system: SF-268 CNS
CAKI-1 renal = system: CAKI-1 renal
ACHN renal = system: ACHN renal
MDA-MB-468 breast = system: MDA-MB-468 breast
CCRF-CEM leukemia = system: CCRF-CEM leukemia
HS 578T breast = system: HS 578T breast
COLO 205 colon = system: COLO 205 colon
NCI/ADR-RES ovarian = system: NCI/ADR-RES ovarian
K-562 leukemia = system: K-562 leukemia
SK-MEL-5 melanoma = system: SK-MEL-5 melanoma
M14 melanoma = system: M14 melanoma
SN12C renal = system: SN12C renal
HCT-116 colon = system: HCT-116 colon

CC(C)C[C@@H](C=O)NC(=O)[C@H](CC(C)C)NC(=O)[C@H](CC(C)C)NC(=O)OCc1ccccc1 (Cbz-Leu-Leu-Leu-aldehyde)
253 nM: TGI (MDA-MB-468 breast)
440 nM: TGI (OVCAR-5 ovarian)
355 nM: TGI (SN12C renal)
370 nM: TGI (SK-MEL-5 melanoma)
334 nM: TGI (K-562 leukemia)
312 nM: TGI (UACC-62 melanoma)
676 nM: TGI (CAKI-1 renal)
305 nM: TGI (BT-549 breast)
239 nM: TGI (CCRF-CEM leukemia)
506 nM: TGI (DU-145 prostate)
310 nM: TGI (NCI-H23 lung)
313 nM: TGI (SF-268 CNS)
268 nM: TGI (SK-MEL-2 melanoma)
225 nM: TGI (OVCAR-3 ovarian)
351 nM: TGI (SNB-75 CNS)
3060 nM: TGI (NCI/ADR-RES ovarian)
296 nM: TGI (HCT-116 colon)
796 nM: TGI (A498 renal)
534 nM: TGI (EKVX NSCLC)
380 nM: TGI (NCI-H460 NSCLC)
1690 nM: TGI (A549 NSCLC)
328 nM: TGI (HOP-92 NSCLC)
326 nM: TGI (KM12 colon)
70.2 nM: TGI (RPMI-8226 leukemia)
280 nM: TGI (SK-MEL-28 melanoma)
active: GI50 (SF-295 CNS) 192 nM | GI50 (HT29 colon) 178 nM | GI50 (MCF7 breast) 99.1 nM | GI50 (PC-3 prostate) 177 nM | GI50 (A498 renal) 263 nM | GI50 (NCI-H226 lung) 188 nM | GI50 (LOX IMVI melanoma) 158 nM | GI50 (SK-OV-3 ovarian) 220 nM | GI50 (HOP-62 NSCLC) 180 nM | GI50 (BT-549 breast) 164 nM | GI50 (OVCAR-3 ovarian) 94 nM | GI50 (UO-31 renal) 179 nM | GI50 (UACC-62 melanoma) 168 nM | GI50 (SF-539 CNS) 167 nM | GI50 (HOP-92 NSCLC) 179 nM | GI50 (SNB-75 CNS) 185 nM | GI50 (SW-620 colon) 138 nM | GI50 (RPMI-8226 leukemia) 30.1 nM | GI50 (NCI-H23 lung) 163 nM | GI50 (DU-145 prostate) 212 nM | GI50 (TK-10 renal) 195 nM | GI50 (SNB-19 CNS) 161 nM | GI50 (SK-MEL-2 melanoma) 134 nM | GI50 (UACC-257 melanoma) 131 nM | GI50 (OVCAR-4 ovarian) 174 nM | GI50 (MOLT-4 leukemia) 74.8 nM | GI50 (OVCAR-5 ovarian) 213 nM | GI50 (SR leukemia) 24.7 nM | GI50 (EKVX NSCLC) 222 nM | GI50 (KM12 colon) 178 nM | GI50 (HCT-15 colon) 194 nM | GI50 (NCI-H460 NSCLC) 200 nM | GI50 (SK-MEL-28 melanoma) 142 nM | GI50 (SF-268 CNS) 166 nM | GI50 (CAKI-1 renal) 228 nM | GI50 (ACHN renal) 202 nM | GI50 (MDA-MB-468 breast) 126 nM | GI50 (CCRF-CEM leukemia) 114 nM | GI50 (HS 578T breast) 121 nM | GI50 (COLO 205 colon) 258 nM | GI50 (K-562 leukemia) 176 nM | GI50 (SK-MEL-5 melanoma) 215 nM | GI50 (M14 melanoma) 179 nM | GI50 (SN12C renal) 177 nM | GI50 (HCT-116 colon) 146 nM
inactive: GI50 (A549 NSCLC) 427 nM | GI50 (NCI/ADR-RES ovarian) 1570 nM
417 nM: TGI (TK-10 renal)
98 nM: TGI (SR leukemia)
340 nM: TGI (SNB-19 CNS)
385 nM: TGI (SF-295 CNS)
335 nM: TGI (HT29 colon)
362 nM: TGI (HCT-15 colon)
324 nM: TGI (UO-31 renal) | TGI (OVCAR-4 ovarian) | TGI (M14 melanoma)
714 nM: TGI (COLO 205 colon)
200 nM: TGI (MOLT-4 leukemia)
339 nM: TGI (HOP-62 NSCLC)
307 nM: TGI (SF-539 CNS)
325 nM: TGI (PC-3 prostate)
275 nM: TGI (SW-620 colon)
263 nM: TGI (UACC-257 melanoma)
425 nM: TGI (ACHN renal)
298 nM: TGI (LOX IMVI melanoma)
372 nM: TGI (NCI-H226 lung)
538 nM: TGI (SK-OV-3 ovarian)
246 nM: TGI (HS 578T breast)
603 nM: TGI (MCF7 breast)

Cc1[nH]nc2ncc(C(=O)N3CCC[C@H]3c3ccc(Cl)cc3)cc12
68500 nM: TGI (MDA-MB-468 breast)
> 79600 nM: TGI (SW-620 colon)
inactive: GI50 (SF-295 CNS) 55200 nM | GI50 (HT29 colon) > 100000 nM | GI50 (A549 NSCLC) > 100000 nM | GI50 (MCF7 breast) 31800 nM | GI50 (PC-3 prostate) 48900 nM | GI50 (A498 renal) 39000 nM | GI50 (NCI-H226 lung) 39100 nM | GI50 (LOX IMVI melanoma) 60600 nM | GI50 (SK-OV-3 ovarian) > 100000 nM | GI50 (HOP-62 NSCLC) > 54900 nM | GI50 (BT-549 breast) 57700 nM | GI50 (OVCAR-3 ovarian) 26100 nM | GI50 (UO-31 renal) 46600 nM | GI50 (UACC-62 melanoma) 23400 nM | GI50 (SF-539 CNS) > 91400 nM | GI50 (HOP-92 NSCLC) > 55600 nM | GI50 (SNB-75 CNS) > 78100 nM | GI50 (SW-620 colon) 30900 nM | GI50 (RPMI-8226 leukemia) 54500 nM | GI50 (NCI-H23 lung) 36600 nM | GI50 (DU-145 prostate) > 100000 nM | GI50 (TK-10 renal) 80600 nM | GI50 (SNB-19 CNS) > 100000 nM | GI50 (SK-MEL-2 melanoma) 25300 nM | GI50 (UACC-257 melanoma) > 100000 nM | GI50 (OVCAR-4 ovarian) > 100000 nM | GI50 (MOLT-4 leukemia) 25500 nM | GI50 (OVCAR-5 ovarian) > 100000 nM | GI50 (SR leukemia) 11700 nM | GI50 (EKVX NSCLC) > 100000 nM | GI50 (KM12 colon) 31500 nM | GI50 (HCT-15 colon) > 78600 nM | GI50 (NCI-H460 NSCLC) 60400 nM | GI50 (SK-MEL-28 melanoma) > 100000 nM | GI50 (SF-268 CNS) > 100000 nM | GI50 (CAKI-1 renal) > 100000 nM | GI50 (ACHN renal) 22100 nM | GI50 (MDA-MB-468 breast) 21200 nM | GI50 (CCRF-CEM leukemia) 15600 nM | GI50 (HS 578T breast) 41400 nM | GI50 (COLO 205 colon) 33600 nM | GI50 (NCI/ADR-RES ovarian) 30800 nM | GI50 (K-562 leukemia) 20900 nM | GI50 (SK-MEL-5 melanoma) 50800 nM | GI50 (M14 melanoma) > 100000 nM | GI50 (SN12C renal) > 100000 nM | GI50 (HCT-116 colon) 37200 nM
> 72700 nM: TGI (MOLT-4 leukemia)
77500 nM: TGI (SK-MEL-2 melanoma)
83400 nM: TGI (COLO 205 colon)
> 85100 nM: TGI (KM12 colon)
48600 nM: TGI (UACC-62 melanoma)
> 100000 nM: TGI (SF-295 CNS) | TGI (HT29 colon) | TGI (A549 NSCLC) | TGI (MCF7 breast) | TGI (PC-3 prostate) | TGI (A498 renal) | TGI (NCI-H226 lung) | TGI (LOX IMVI melanoma) | TGI (SK-OV-3 ovarian) | TGI (HOP-62 NSCLC) | TGI (BT-549 breast) | TGI (UO-31 renal) | TGI (SF-539 CNS) | TGI (SNB-75 CNS) | TGI (RPMI-8226 leukemia) | TGI (NCI-H23 lung) | TGI (DU-145 prostate) | TGI (TK-10 renal) | TGI (SNB-19 CNS) | TGI (UACC-257 melanoma) | TGI (OVCAR-4 ovarian) | TGI (OVCAR-5 ovarian) | TGI (EKVX NSCLC) | TGI (HCT-15 colon) | TGI (NCI-H460 NSCLC) | TGI (SK-MEL-28 melanoma) | TGI (SF-268 CNS) | TGI (CAKI-1 renal) | TGI (HS 578T breast) | TGI (NCI/ADR-RES ovarian) | TGI (SK-MEL-5 melanoma) | TGI (M14 melanoma) | TGI (SN12C renal) | TGI (HCT-116 colon)
25000 nM: TGI (SR leukemia)
30600 nM: TGI (CCRF-CEM leukemia)
99800 nM: TGI (OVCAR-3 ovarian)
62000 nM: TGI (ACHN renal)
44100 nM: TGI (K-562 leukemia)
> 89700 nM: TGI (HOP-92 NSCLC)
